Experimental data as given in ChEMBL document CHEMBL5104182, “Design and Synthesis of a 2-Amino-pyridine Derivative as a Potent CDK8 Inhibitor for Anti-colorectal Cancer Therapy” (J Med Chem, 2022).
Active and inactive are the calls of the source. The calls are words filed in the database; no cut-off is given here.

How the values were obtained:
CT26 [1] = experiment: Anticancer activity against mouse CT26 cells transplanted in […] mouse assessed as reduction in tumor volume at 10 to 40 mg/kg, po daily measured after 21 days; assay type: functional, organism-based; details: dose 10-40 mg/kg, time 21.0 day
HCT-116 [2] = experiment: Decrease in beta-catenin/TCF combination expression in human HCT-116 cells transfected with TOPFLASH at 1 to 4 uM incubated for 24 hrs by luciferase assay; assay type: functional, cell-based; details: dose 1-4 µM
[3] = Toxicity in ICR mouse assessed as abnormal behavior at 1000 mg/kg, using gastric tube; assay type: organism-based; details: in vivo, po, route ig
[4] = Toxicity in Balb/c mouse assessed as ALT level in serum at 1000 mg/kg, using gastric tube; assay type: organism-based; details: in vivo, po, route ig
HCT-116 [5] = experiment: Decrease in Lef expression in human HCT-116 cells at 1 to 4 uM incubated for 48 hrs by western blotting analysis; assay type: functional, cell-based; details: dose 1-4 µM
CT26 [6] = experiment: Anticancer activity against mouse CT26 cells transplanted in […] mouse assessed as reduction in tumor growth at 10 to 40 mg/kg, po daily measured after 21 days; assay type: functional, organism-based; details: dose 10-40 mg/kg, time 21.0 day
CT26 [7] = experiment: In vivo inhibition of CDK8 in mouse CT26 cells transplanted in […] mouse assessed as upregulation of E2F1 in tumor at 10 to 40 mg/kg, po daily measured after 21 days; assay type: functional, organism-based; details: dose 10-40 mg/kg, time 21.0 day
[8] = Half life in Sprague-Dawley rat at 10 mg/kg, po upto 24 hrs by HPLC analysis; assay type: ADME, organism-based; details: in vivo
[9] = Toxicity in ICR mouse assessed as spleen damage at 1000 mg/kg, using gastric tube by H&E staining assay; assay type: organism-based; details: in vivo, po, route ig
[10] = Cytotoxicity against human GES1 cells assessed as cell viability incubated for 48 hrs by MTT assay; assay type: toxicity, cell-based
[11] = target: T1, Cyclin-dependent kinase 8 (Homo sapiens, UniProt P49336); experiment: Inhibition of CDK8 (unknown origin) assessed as inhibition rate
T1 sequence (P49336 whole entry): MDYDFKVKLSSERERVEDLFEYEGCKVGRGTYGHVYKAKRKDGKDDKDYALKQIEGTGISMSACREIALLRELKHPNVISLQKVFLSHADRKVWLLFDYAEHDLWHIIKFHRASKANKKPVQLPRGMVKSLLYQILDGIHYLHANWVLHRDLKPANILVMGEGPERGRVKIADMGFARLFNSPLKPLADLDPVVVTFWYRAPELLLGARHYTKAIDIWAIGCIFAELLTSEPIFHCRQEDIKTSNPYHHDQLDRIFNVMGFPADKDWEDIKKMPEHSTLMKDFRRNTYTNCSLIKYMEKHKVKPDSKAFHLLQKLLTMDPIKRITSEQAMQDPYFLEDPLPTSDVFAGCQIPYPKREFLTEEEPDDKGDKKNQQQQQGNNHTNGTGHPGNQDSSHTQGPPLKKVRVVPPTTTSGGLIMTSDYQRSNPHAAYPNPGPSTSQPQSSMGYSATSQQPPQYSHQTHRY

[12] = Cmax in Sprague-Dawley rat at 2 mg/kg, iv upto 24 hrs by HPLC analysis; assay type: ADME, organism-based; design: dose 2 mg/kg, time < 24 hrs, route iv; details: in vivo
[13] = Oral bioavailability in Sprague-Dawley rat at 10 mg/kg upto 24 hrs by HPLC analysis; assay type: ADME, organism-based; details: in vivo
[14] = target: Cyclin-dependent kinase 7 (Homo sapiens, UniProt P50613); experiment: Inhibition of CDK7 (unknown origin) assessed as inhibition rate
Sequence of Cyclin-dependent kinase 7 (P50613 whole entry): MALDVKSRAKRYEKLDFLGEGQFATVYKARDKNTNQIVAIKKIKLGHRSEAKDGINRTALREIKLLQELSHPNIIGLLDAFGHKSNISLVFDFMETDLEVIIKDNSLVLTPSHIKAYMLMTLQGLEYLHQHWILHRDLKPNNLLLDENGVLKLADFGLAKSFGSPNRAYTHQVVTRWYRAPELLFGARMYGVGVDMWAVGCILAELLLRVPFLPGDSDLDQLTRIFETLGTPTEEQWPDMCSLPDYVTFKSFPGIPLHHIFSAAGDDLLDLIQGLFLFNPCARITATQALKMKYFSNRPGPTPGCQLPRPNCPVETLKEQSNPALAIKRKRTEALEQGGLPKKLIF

HT-29 = experiment: Antiproliferative activity against human HT-29 cells assessed as cell viability incubated for 48 hrs by MTT assay; assay type: functional
Homo sapiens = species on record: Homo sapiens; experiment: Selectivity ratio of IC50 for human CDK7 to IC50 for human CDK8
[15] = Toxicity in ICR mouse assessed as kidney damage at 1000 mg/kg, using gastric tube by H&E staining assay; assay type: organism-based; details: in vivo, po, route ig
HCT-116 [16] = experiment: Decrease in Dvl2 expression in human HCT-116 cells at 1 to 4 uM incubated for 12 hrs by western blotting analysis; assay type: functional, cell-based; details: dose 1-4 µM
HCT-116 [17] = experiment: Potency index, ratio of Sorafenib IC50 to test compound IC50 for antiproliferative activity against human HCT-116 cells incubated for 48 hrs by MTT assay; assay type: functional
[18] = MRT in Sprague-Dawley rat at 2 mg/kg, iv upto 24 hrs by HPLC analysis; assay type: ADME, organism-based; details: in vivo
HCT-116 [19] = experiment: Induction of cell cycle arrest in human HCT-116 cells assessed as increase in E2F1 level incubated for 24 hrs by Western blot analysis; assay type: functional, cell-based
[20] = Toxicity in ICR mouse assessed as lung damage at 1000 mg/kg, using gastric tube by H&E staining assay; assay type: organism-based; details: in vivo, po, route ig
[21] = target: T1, Cyclin-dependent kinase 8; details: dose 200.0 nM
HCT-116 [22] = experiment: Induction of cell cycle arrest in human HCT-116 cells assessed as decrease in CDK6 level incubated for 24 hrs by Western blot analysis; assay type: functional, cell-based
[23] = Toxicity in ICR mouse assessed as heart damage at 1000 mg/kg, using gastric tube by H&E staining assay; assay type: organism-based; details: in vivo, po, route ig
HCT-116 [24] = experiment: Decrease in CTD phosphorylation in human HCT-116 cells at 1 to 4 uM incubated for 48 hrs by western blotting analysis; assay type: functional, cell-based; details: dose 1-4 µM
CT26 [25] = experiment: In vivo inhibition of CDK8 in mouse CT26 cells transplanted in […] mouse assessed as downregulation of beta-catenin in tumor at 10 to 40 mg/kg, po daily measured after 21 days; assay type: functional, organism-based; details: dose 10-40 mg/kg, time 21.0 day
[26] = target: T1, Cyclin-dependent kinase 8; experiment: Inhibition of CDK8 in human HCT-116 cells assessed as inhibition of STAT1 phosphorylation at Ser727 by Western blot analysis; assay type: cell-based
CT26 [27] = experiment: Antiproliferative activity against […] cells assessed as cell viability incubated for 48 hrs by MTT assay; assay type: functional; details: Mus musculus
[28] = Toxicity in Balb/c mouse assessed as MPO level in serum at 1000 mg/kg, using gastric tube; assay type: organism-based; details: in vivo, po, route ig
HCT-116 [29] = experiment: Antiproliferative activity against human HCT-116 cells assessed as cell viability incubated for 48 hrs by MTT assay; assay type: functional
HCT-116 [30] = experiment: Induction of cell cycle arrest in human HCT-116 cells assessed as increase in cells at G2/M phase measured after 48 hrs by flow cytometry; assay type: functional, cell-based
HCT-116 [31] = experiment: Decrease in LRP6 expression in human HCT-116 cells at 1 to 4 uM incubated for 12 hrs by western blotting analysis; assay type: functional, cell-based; details: dose 1-4 µM
HCT-116 [32] = experiment: Decrease in beta-catenin/TCF/Lef combination expression in human HCT-116 cells at 1 to 4 uM incubated for 24 hrs by western blotting analysis; assay type: functional, cell-based; details: dose 1-4 µM
[33] = Half life in Sprague-Dawley rat at 2 mg/kg, iv upto 24 hrs by HPLC analysis; assay type: ADME, organism-based; details: in vivo
[34] = Toxicity in ICR mouse assessed as liver damage at 1000 mg/kg, using gastric tube by H&E staining assay; assay type: organism-based; details: in vivo, po, route ig
[35] = target: Cyclin-dependent kinase 6 (Homo sapiens, UniProt Q00534); experiment: Inhibition of CDK6 (unknown origin) assessed as inhibition rate
Sequence of Cyclin-dependent kinase 6 (Q00534 whole entry): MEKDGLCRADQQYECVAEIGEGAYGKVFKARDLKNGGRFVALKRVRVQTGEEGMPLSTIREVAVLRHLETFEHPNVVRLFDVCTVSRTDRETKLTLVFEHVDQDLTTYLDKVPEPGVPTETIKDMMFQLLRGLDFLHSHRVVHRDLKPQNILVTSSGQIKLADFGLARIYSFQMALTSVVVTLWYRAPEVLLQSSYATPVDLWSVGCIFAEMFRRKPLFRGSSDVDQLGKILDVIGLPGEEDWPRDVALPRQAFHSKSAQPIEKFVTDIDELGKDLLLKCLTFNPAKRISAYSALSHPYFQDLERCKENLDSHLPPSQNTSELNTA

[36] = AUC (0 to infinitive) in Sprague-Dawley rat at 2 mg/kg, iv upto 24 hrs by HPLC analysis; assay type: ADME, organism-based; design: time < 24 hrs, dose 2 mg/kg, route iv; details: in vivo
[37] = Cmax in Sprague-Dawley rat at 10 mg/kg, po upto 24 hrs by HPLC analysis; assay type: ADME, organism-based; design: time < 24 hrs, dose 10 mg/kg, route po; details: in vivo
[38] = target: T1, Cyclin-dependent kinase 8; experiment: Binding affinity to CDK8-Flag (unknown origin) transfected in HEK293T cells; assay type: cell-based
HCT-116 [39] = experiment: Induction of cell cycle arrest in human HCT-116 cells assessed as decrease in p-Rb S780 level incubated for 24 hrs by Western blot analysis; assay type: functional, cell-based
HCT-116 [40] = experiment: Induction of cell cycle arrest in human HCT-116 cells assessed as increase in cells at G1 phase measured after 48 hrs by flow cytometry; assay type: functional, cell-based
SW480 = experiment: Antiproliferative activity against human SW480 cells assessed as cell viability incubated for 48 hrs by MTT assay; assay type: functional
[41] = target: T1, Cyclin-dependent kinase 8; experiment: Inhibition of CDK8 in human HCT-116 cells assessed as inhibition of […] phosphorylation at Tyr701 by Western blot analysis; assay type: cell-based
HCT-116 [42] = experiment: Decrease in TCF1 expression in human HCT-116 cells at 1 to 4 uM incubated for 48 hrs by western blotting analysis; assay type: functional, cell-based; details: dose 1-4 µM
HCT-116 [43] = experiment: Decrease in beta-catenin expression in human HCT-116 cells at 1 to 4 uM incubated for 12 hrs by western blotting analysis; assay type: functional, cell-based; details: dose 1-4 µM

half-life [8]: 66 min
IC50 [11]: 46.5 nM
Cmax [12]: 318 ng/mL
bioavailability [13]: 31.7%
IC50 [14]: 99.6 nM
GI50 (HT-29): 700 nM
Ratio IC50 (Homo sapiens): 2
MRT [18]: 54 min
inhibition [21]: 73.6%
inhibition [26]: Active
GI50 (CT26 [27]): 5500 nM
GI50 (HCT-116 [29]): 1200 nM
half-life [33]: 30 min
IC50 [35]: 251 nM
AUC(0-inf) [36]: 382 ng·h/mL
Cmax [37]: 453 ng/mL
Activity [38]: Active
GI50 (SW480): 2400 nM
inhibition [41]: Active
Compound: Nc1ccc(Oc2ccc(NC(=O)Nc3cccc(C(F)(F)F)c3)cc2)cn1
Activity (CT26 [1]): Active
Activity (HCT-116 [2]): Active
Activity [3]: Non-Toxic
Activity [4]: Non-Toxic
Activity (HCT-116 [5]): Active
Activity (CT26 [6]): Active
Activity (CT26 [7]): Active
Activity [9]: Non-Toxic
GI50 at 48 h [10]: 62700 nM
Activity [15]: Non-Toxic
Activity (HCT-116 [16]): Active
Ratio (HCT-116 [17]): 3.6
Activity (HCT-116 [19]): Active
Activity [20]: Non-Toxic
Activity (HCT-116 [22]): Active
Activity [23]: Non-Toxic
Activity (HCT-116 [24]): Active
Activity (CT26 [25]): Active
Activity [28]: Non-Toxic
Activity (HCT-116 [30]): Active
Activity (HCT-116 [31]): Active
Activity (HCT-116 [32]): Active
Activity [34]: Non-Toxic
Activity (HCT-116 [39]): Active
Activity (HCT-116 [40]): Active
Activity (HCT-116 [42]): Active
Activity (HCT-116 [43]): Active
